From ChEMBL document CHEMBL3769367, “Orexin Receptor Antagonists: New Therapeutic Agents for the Treatment of Insomnia” (J Med Chem, 2016)
pIC50: −log10 of the molar value. Blank lines part the entries; values can stand above or below the compound they belong to.

How the values were obtained:
[1] = Clearance in Wistar rat at 1 mg/kg, iv; format: ADME, organism-based; conditions: in vivo
[2] = Ratio of drug level in brain to plasma in Wistar rat; format: ADME, cell-free; conditions: read-out: BPR
[3] = Oral bioavailability in Beagle dog at 3 mg/kg; format: ADME, organism-based, Canis lupus familiaris; conditions: in vivo
[4] = Plasma protein binding in Beagle dog; format: ADME, cell-free, Canis lupus familiaris; conditions: read-out: PPB (converted)
[5] = Half life in Beagle dog 1 mg/kg, iv; format: ADME, organism-based, Canis lupus familiaris; conditions: in vivo
[6] = test system: Canis familiaris; assay: Effect on sleep parameter in po dosed Beagle dog by EEG analysis; format: functional, Canis lupus familiaris
[7] = Oral bioavailability in Wistar rat at 10 mg/kg; format: ADME, organism-based; conditions: in vivo
[8] = test system: Rattus norvegicus; assay: Effect on sleep parameter in po dosed Wistar rat by EEG analysis; format: functional
[9] = Half life in Wistar rat at 1 mg/kg, iv; format: ADME, organism-based; conditions: in vivo
[10] = Plasma protein binding in Wistar rat; format: ADME, cell-free; conditions: read-out: PPB (converted)
[11] = Half life in human plasma at 1 to 1500 mg, po administered as single dose; format: ADME, organism-based
[12] = Plasma protein binding in human; format: ADME, cell-free; conditions: read-out: PPB (converted)
[13] = Tmax in human at 1 to 1500 mg, po administered as single dose; format: ADME, organism-based; conditions: in vivo
[14] = Clearance in Beagle dog 1 mg/kg, iv; format: ADME, organism-based, Canis lupus familiaris; conditions: in vivo
[15] = Clearance in iv dosed rhesus monkey; format: ADME, organism-based, Macaca mulatta; conditions: in vivo
[16] = Plasma protein binding in rhesus monkey; format: ADME, cell-free, Macaca mulatta; conditions: read-out: PPB (converted)
[17] = target: T1, Orexin receptor type 2 (Homo sapiens, UniProt O43614); assay: Antagonist activity at human OX2R expressed in CHO cells by FLIPR assay; format: cell-based
T1 sequence (O43614 whole entry): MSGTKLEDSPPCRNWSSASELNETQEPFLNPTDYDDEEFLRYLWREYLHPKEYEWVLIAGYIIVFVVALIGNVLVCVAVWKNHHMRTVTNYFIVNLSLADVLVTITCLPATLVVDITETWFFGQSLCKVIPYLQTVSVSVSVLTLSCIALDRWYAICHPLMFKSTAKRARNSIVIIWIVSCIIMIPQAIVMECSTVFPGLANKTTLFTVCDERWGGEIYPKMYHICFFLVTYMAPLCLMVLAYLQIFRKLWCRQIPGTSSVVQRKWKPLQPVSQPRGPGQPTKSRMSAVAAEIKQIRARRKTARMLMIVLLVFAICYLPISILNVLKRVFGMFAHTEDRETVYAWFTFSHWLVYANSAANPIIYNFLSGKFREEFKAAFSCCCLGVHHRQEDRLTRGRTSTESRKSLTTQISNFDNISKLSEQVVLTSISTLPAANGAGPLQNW

[18] = Tmax in human plasma at 5 to 250 mg, po; format: ADME, organism-based
[19] = test system: Rattus norvegicus; assay: Effect on sleep parameter in po dosed Sprague-Dawley rat by EEG analysis; format: functional
[20] = Oral bioavailability in Sprague-Dawley rat; format: ADME, organism-based; conditions: in vivo
[21] = Clearance in iv dosed Beagle dog; format: ADME, organism-based, Canis lupus familiaris; conditions: in vivo
[22] = test system: Rhesus monkey; assay: Effect on sleep parameter in po dosed rhesus monkey by EEG analysis; format: functional, Macaca mulatta
[23] = Lipophilicity, log D of the compound; format: physicochemical; conditions: octanol/water
[24] = Half life in iv dosed Beagle dog; format: ADME, organism-based, Canis lupus familiaris; conditions: in vivo
[25] = target: T2, Orexin/Hypocretin receptor type 1 (Homo sapiens, UniProt O43613); assay: Antagonist activity at human OX1R expressed in CHO cells by FLIPR assay; format: cell-based
T2 sequence (O43613 whole entry): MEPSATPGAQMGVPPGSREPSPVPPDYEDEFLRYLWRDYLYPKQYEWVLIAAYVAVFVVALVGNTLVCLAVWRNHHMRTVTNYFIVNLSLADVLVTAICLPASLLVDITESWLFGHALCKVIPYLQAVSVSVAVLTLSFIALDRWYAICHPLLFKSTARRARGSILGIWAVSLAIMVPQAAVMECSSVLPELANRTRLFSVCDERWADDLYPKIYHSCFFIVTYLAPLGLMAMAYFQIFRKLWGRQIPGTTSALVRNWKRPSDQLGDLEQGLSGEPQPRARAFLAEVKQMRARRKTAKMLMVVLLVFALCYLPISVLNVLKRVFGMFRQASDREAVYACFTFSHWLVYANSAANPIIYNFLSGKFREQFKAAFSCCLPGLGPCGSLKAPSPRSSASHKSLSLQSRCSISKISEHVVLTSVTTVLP

[26] = test system: Liver microsome; assay: GSH activity in human liver microsomes assessed as reduction in GSH adduct formation; format: ADME; set-up: scale not given: the % may be the effect or the level left
[27] = Half life in human plasma at 5 to 250 mg, po; format: ADME, organism-based
[28] = Half life in iv dosed Sprague-Dawley rat; format: ADME, organism-based; conditions: in vivo
[29] = Half life in iv dosed rhesus monkey; format: ADME, organism-based, Macaca mulatta; conditions: in vivo
[30] = test system: Mus musculus; assay: Effect on sleep parameter in po dosed C57/BL6 mouse by EEG analysis; format: functional
[31] = Clearance in iv dosed Sprague-Dawley rat; format: ADME, organism-based; conditions: in vivo
[32] = target: Cytochrome P450 3A4 (Homo sapiens, UniProt P08684); assay: Inhibition of CYP3A4 (unknown origin); format: ADME
[33] = Oral bioavailability rhesus monkey; format: ADME, organism-based, Macaca mulatta; conditions: in vivo
[34] = species on record: Rattus norvegicus; assay: Receptor occupancy at OX2R in rat brain assessed as drug level in plasma; format: functional
[35] = Oral bioavailability Beagle dog; format: ADME, organism-based, Canis lupus familiaris; conditions: in vivo
[36] = Plasma protein binding in Sprague-Dawley rat; format: ADME, cell-free; conditions: read-out: PPB (converted)

Cytochrome P450 3A4, sequence (P08684 whole entry): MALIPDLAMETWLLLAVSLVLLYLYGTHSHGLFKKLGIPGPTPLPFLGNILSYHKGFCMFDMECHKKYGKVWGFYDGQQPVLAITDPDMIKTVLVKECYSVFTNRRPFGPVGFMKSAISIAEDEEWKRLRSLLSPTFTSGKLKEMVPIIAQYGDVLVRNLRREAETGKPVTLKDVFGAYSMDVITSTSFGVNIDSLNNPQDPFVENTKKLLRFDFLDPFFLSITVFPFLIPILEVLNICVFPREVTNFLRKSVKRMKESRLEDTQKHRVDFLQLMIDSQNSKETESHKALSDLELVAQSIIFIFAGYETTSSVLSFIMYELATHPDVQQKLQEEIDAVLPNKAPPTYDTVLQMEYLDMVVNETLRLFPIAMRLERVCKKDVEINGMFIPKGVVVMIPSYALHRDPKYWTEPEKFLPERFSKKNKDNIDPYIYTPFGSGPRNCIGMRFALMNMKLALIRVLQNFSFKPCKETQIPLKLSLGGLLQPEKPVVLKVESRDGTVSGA

clearance [1]: 29 mL/min/kg
Kp [2]: 0.46
bioavailability [3]: 52%
fraction unbound [4]: 0.011
half-life [5]: 1.7 h
bioavailability [7]: 39%
half-life [9]: 1.9 h
fraction unbound [10]: 0.007
half-life [11]: 10 h
fraction unbound [12]: 0.007
Tmax [13]: 1.5 h
clearance [14]: 11 mL/min/kg
SMILES: COc1ccc(S(=O)(=O)N2CCC[C@H]2C(=O)Nc2cc(C)cc(C)c2)cc1 [ACT-462206]
Activity [6]: 100 mg/kg
Activity [8]: 100 mg/kg

clearance [15]: 12 mL/min/kg
fraction unbound [16]: 0.06
fraction unbound [4]: 0.29
pIC50 [17]: 7.74
Tmax [18]: 1 h
bioavailability [20]: 54%
clearance [21]: 16 mL/min/kg
logD [23]: 1.8
half-life [24]: 1 h
pIC50 [25]: 5.75
Activity [26]: 85%
half-life [27]: 1.6 h
half-life [28]: 0.3 h
half-life [29]: 0.8 h
clearance [31]: 36 mL/min/kg
pIC50 [32]: 4.55
fraction unbound [12]: 0.03
bioavailability [33]: 16%
bioavailability [35]: 48%
fraction unbound [36]: 0.19
SMILES: COc1ccc(CNC(=O)c2cc(-c3cncc(Cl)c3)cnc2-c2ccccn2)nc1OC [MK-1064]
Activity [19]: 20 mg/kg
Activity [6]: 1 mg/kg
Activity [22]: 10 mg/kg
Activity [30]: 100 mg/kg
Occ90 [34]: 695 nM
